According to patent US20230257351A1, “SUBSTITUTED N-[…] HAVING P2X4 RECEPTOR ANTAGONISTIC ACTIVITY” (Bayer Aktiengesellschaft, priority 2020, published 2023):

Target: T1, human P2X4 (Homo sapiens, UniProt Q99571)
T1 construct: expressed in transfected cells
T1 sequence (Q99571 1-388): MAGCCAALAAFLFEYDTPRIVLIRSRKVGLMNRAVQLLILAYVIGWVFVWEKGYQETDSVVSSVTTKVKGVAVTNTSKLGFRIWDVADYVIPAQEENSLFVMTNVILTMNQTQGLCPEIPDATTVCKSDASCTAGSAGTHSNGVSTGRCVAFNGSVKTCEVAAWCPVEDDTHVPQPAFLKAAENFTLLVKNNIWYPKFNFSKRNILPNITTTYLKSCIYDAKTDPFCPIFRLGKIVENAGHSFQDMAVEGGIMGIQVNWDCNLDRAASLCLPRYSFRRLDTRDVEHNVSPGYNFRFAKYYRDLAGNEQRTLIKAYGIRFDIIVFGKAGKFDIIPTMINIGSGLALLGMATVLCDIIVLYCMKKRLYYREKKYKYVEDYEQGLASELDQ
Experiment: Human P2X4 HEK Cell FLIPR Assay
Assay type: cell-based
Conditions: HEK293 stably expressing human P2X4, agonist Bz-ATP 3 μM (EC80); for IC50: read-out: Human P2X4 HEK Cells (FLIPR Assay) avg IC50
Experimental: Compounds were tested on a HEK293 cell line stably expressing human P2X4. Cells were cultured on poly-D-lysine-coated 384-well plates at a density of 15,000 cells/well and incubated overnight at 37° C., 5% CO2. P2X4 function was assessed by measuring intracellular calcium fluxes caused by Benzoylbenzoyl-ATP (Bz-ATP) using the calcium-chelating dye Fluo8-AM (Molecular Devices) with the Fluorescent Imaging Plate Reader Tetra (FLIPR^Tetra; Molecular Devices CA). On the day of the assay, the medium was removed and the cells were incubated for 30 min at 37° C. and 5% CO2 in 30 μl of dye buffer (Hank's balanced salt solution, 10 mM HEPES, 1.8 mM CaCl2, 1 mM MgCl2, 2 mM probenecid, 5 mM D-glucose monohydrate, 5 μM Fluo8-AM, pH=7.4). Compounds diluted in probenecid buffer (Hank's balanced salt solution, 10 mM HEPES, 1.8 mM CaCl2, 1 mM MgCl2, 2 mM probenecid, 5 mM D-glucose monohydrate, pH=7.4) at ten concentrations ranging from 25 μM to 1 nM (final concentration) were dispensed and incubated for 30 min at room temperature. […] The final assay volume was 50 μl and final DMSO concentration was 0.5%.
The fluorescence intensity reflecting intracellular calcium changes was recorded before and after Bz-ATP addition, at an excitation and emission wavelengths of 470-495 nm and 515-575 nm respectively.
The compounds were tested in triplicates and fluorescence intensity raw data normalized to the agonist control and fitted to the four-parameter logistic equation:
Y=Bottom+(Top−Bottom)/(1+10^((Log IC50−X)*HillSlope))
Assay plate acceptance was based on the signal window (S/B)[…] and the reference compound pIC50 within ±3σ the mean of historic pIC50 of the compound. Failure to meet two of the three criteria determined exclusion of the plate's results.

Row | Structure (SMILES) | Human P2X4 HEK Cells (FLIPR Assay) avg Efficacy | IC50
1 | CC(=O)N(c1cccc(C(F)F)c1)c1cc(NC(=O)Cc2ccc(F)cc2Cl)ccn1 [Example 3, N-{4-[2-(2-chloro-4-fluorophenyl)acetamido]pyridin-2-yl}-N-[3-(difluoromethyl)phenyl]acetamide] | 98% | 657 nM
2 | CC(=O)N(c1cccc(C(F)(F)F)c1)c1cc(NC(=O)Cc2ccccc2Cl)ccn1 [Example 6, N-{4-[2-(2-chlorophenyl)acetamido]pyridin-2-yl}-N-[3-(trifluoromethyl)phenyl]acetamide] | 97% | 689 nM
3 | CC(=O)N(c1cccc(C(F)(F)F)c1)c1cc(NC(=O)Cc2ccc(F)cc2Cl)ccn1 [Example 7, N-{4-[2-(2-chloro-4-fluorophenyl)acetamido]pyridin-2-yl}-N-[3-(trifluoromethyl)phenyl]acetamide] | 97% | 846 nM
4 | CC(=O)N(c1cccc(C(F)(F)F)c1)c1cc(NC(=O)Cc2cccc(F)c2Cl)ccn1 [Example 8, N-{4-[2-(2-chloro-3-fluorophenyl)acetamido]pyridin-2-yl}-N-[3-(trifluoromethyl)phenyl]acetamide] | 97% | 681 nM
5 | CC(=O)N(c1cccc(C(F)(F)F)c1)c1cc(NC(=O)Cc2c(Cl)cccc2Cl)ccn1 [Example 9, N-{4-[2-(2,6-dichlorophenyl)acetamido]pyridin-2-yl}-N-[3-(trifluoromethyl)phenyl]acetamide] | 99% | 749 nM
6 | CC(=O)N(c1ccc(C#N)c(C(F)(F)F)c1)c1cc(NC(=O)Cc2ccccc2Cl)ccn1 [Example 10, N-{4-[2-(2-chlorophenyl)acetamido]pyridin-2-yl}-N-[4-cyano-3-(trifluoromethyl)phenyl]acetamide] | 94% | 
7 | CC(=O)N(c1ccc(C#N)c(C(F)(F)F)c1)c1cc(NC(=O)Cc2cccc(F)c2Cl)ccn1 [Example 11, N-{4-[2-(2-chloro-3-fluorophenyl)acetamido]pyridin-2-yl}-N-[4-cyano-3-(trifluoromethyl)phenyl]acetamide] | 100% | 
8 | CC(=O)N(c1ccc(C#N)c(C(F)(F)F)c1)c1cc(NC(=O)Cc2c(Cl)cccc2Cl)ccn1 [Example 12, N-[4-cyano-3-(trifluoromethyl)phenyl]-N-{4-[2-(2,6-dichlorophenyl)acetamido]pyridin-2-yl}acetamide] | 101% | 
9 | CC(=O)N(c1ccc(Cl)c(C#N)c1)c1cc(NC(=O)Cc2ccccc2Cl)ccn1 [Example 16, N-(4-chloro-3-cyanophenyl)-N-{4-[2-(2-chlorophenyl)acetamido]pyridin-2-yl}acetamide] | 95% | 388 nM
10 | CC(=O)N(c1ccc(Cl)c(C#N)c1)c1cc(NC(=O)Cc2ccc(F)cc2Cl)ccn1 [Example 17, N-(4-chloro-3-cyanophenyl)-N-{4-[2-(2-chloro-4-fluorophenyl)acetamido]pyridin-2-yl)acetamide] | 99% | 638 nM
11 | CC(=O)N(c1ccc(Cl)c(C#N)c1)c1cc(NC(=O)Cc2cccc(F)c2Cl)ccn1 [Example 18, N-(4-chloro-3-cyanophenyl)-N-{4-[2-(2-chloro-3-fluorophenyl)acetamido]pyridin-2-yl}acetamide] | 99% | 437 nM
12 | CC(=O)N(c1ccc(Cl)c(C#N)c1)c1cc(NC(=O)Cc2c(Cl)cccc2Cl)ccn1 [Example 19, N-(4-chloro-3-cyanophenyl)-N-{4-[2-(2,6-dichlorophenyl)acetamido]pyridin-2-yl}acetamide] | 103% | 542 nM
13 | CC(=O)N(c1ccc(F)c(C#N)c1)c1cc(NC(=O)Cc2cccc(C(F)(F)F)c2Cl)ccn1 [Example 20, N-(4-{2-[2-chloro-3-(trifluoromethyl)phenyl]acetamido}pyridin-2-yl)-N-(3-cyano-4-fluorophenyl)acetamide] | 99% | 748 nM
14 | CC(=O)N(c1ccccc1)c1cc(NC(=O)Cc2c(F)cccc2Cl)ccn1 [Example 28, N-{4-[2-(2-chloro-6-fluorophenyl)acetamido]pyridin-2-yl}-N-phenylacetamide] | 91% | 777 nM
15 | CC(=O)N(c1ccc(F)cc1)c1cc(NC(=O)Cc2ccc(Cl)cc2C(F)(F)F)ccn1 [Example 31, N-(4-{2-[4-chloro-2-(trifluoromethyl)phenyl]acetamido}pyridin-2-yl)-N-(4-fluorophenyl)acetamide] | 100% | 909 nM
16 | CC(=O)N(c1ccc(F)cc1)c1cc(NC(=O)Cc2cccc(C(F)(F)F)c2Cl)ccn1 [Example 35, N-(4-{2-[2-chloro-3-(trifluoromethyl)phenyl]acetamido}pyridin-2-yl)-N-(4-fluorophenyl)acetamide] | 99% | 938 nM
17 | CC(=O)N(c1ccc(C)cc1)c1cc(NC(=O)Cc2ccccc2Cl)ccn1 [Example 43, N-{4-[2-(2-chlorophenyl)acetamido]pyridin-2-yl}-N-(4-methylphenyl)acetamide] | 100% | 406 nM
18 | CC(=O)N(c1ccc(C)cc1)c1cc(NC(=O)Cc2ccc(F)cc2Cl)ccn1 [Example 44, N-{4-[2-(2-chloro-4-fluorophenyl)acetamido]pyridin-2-yl}-N-(4-methylphenyl)acetamide] | 99% | 607 nM
19 | CC(=O)N(c1ccc(C)cc1)c1cc(NC(=O)Cc2c(Cl)cccc2Cl)ccn1 [Example 46, N-{4-[2-(2,6-dichlorophenyl)acetamido]pyridin-2-yl}-N-(4-methylphenyl)acetamide] | 103% | 551 nM
20 | CC(=O)N(c1ccc(OC(F)F)cc1)c1cc(NC(=O)Cc2ccccc2Cl)ccn1 [Example 47, N-{4-[2-(2-chlorophenyl)acetamido]pyridin-2-yl}-N-[4-(difluoromethoxy)phenyl]acetamide] | 98% | 519 nM
21 | CC(=O)N(c1ccc(OC(F)F)cc1)c1cc(NC(=O)Cc2cccc(F)c2Cl)ccn1 [Example 48, N-{4-[2-(2-chloro-3-fluorophenyl)acetamido]pyridin-2-yl}-N-[4-(difluoromethoxy)phenyl]acetamide] | 99% | 579 nM
22 | CC(=O)N(c1ccc(OC(F)F)cc1)c1cc(NC(=O)Cc2c(Cl)cccc2Cl)ccn1 [Example 49, N-{4-[2-(2,6-dichlorophenyl)acetamido]pyridin-2-yl}-N-[4-(difluoromethoxy)phenyl]acetamide] | 100% | 520 nM
23 | CC(=O)N(c1ccc(Cl)c(F)c1)c1cc(NC(=O)Cc2c(Cl)cccc2Cl)ccn1 [Example 61, N-(4-chloro-3-fluorophenyl)-N-{4-[2-(2,6-dichlorophenyl)acetamido]pyridin-2-yl)acetamide] | 98% | 604 nM
24 | CCc1cc(Cl)c(CC(=O)Nc2ccnc(N(C(C)=O)c3ccc(F)c(F)c3)c2)c(Cl)c1 [Example 75, N-{4-[2-(2,6-dichloro-4-ethylphenyl)acetamido]pyridin-2-yl}-N-(3,4-difluorophenyl)acetamide] | 96% | 919 nM
